Assay results reported in paper PMC10154249, “Unique progerin C-terminal peptide ameliorates Hutchinson–Gilford progeria syndrome phenotype by rescuing BUBR1” (Nature Aging, 2023).

Assays:
Format in all cases: cell-based, human
PTBP1 in HGADFN003 cells = assay: PTBP1 nuclear membrane localization in HGADFN003 cells; conditions: HGADFN003, UPCP
Method: Immunofluorescence was performed as described previously. Cells were plated on cover slips in 12-well plates, left overnight before the treatment. Cells were fixed in 1% formaldehyde in culture medium for 10 min at 37 °C and permeabilized with 0.2% Triton X-100 in PBS for 10 min at room temperature. Cells were washed twice in PBS and blocked for 1 h with 5% BSA in PBS and then incubated with primary antibodies at 4 °C overnight, washed three times in PBS and incubated with secondary antibodies for 1 h at room temperature. Cell nuclei were counterstained with a 500 nM concentration of 4,6-diamidino-2-phenylindole (DAPI) (Sigma). Images were acquired by a fluorescence microscope (OLYMPUS FV-1000, Carl Zeiss LSM880 or Leica DMi8) and analyzed with software NIS-Elements AR v.5.0.1 (Nikon), FLUOVIEW v.4.2b (OLYMPUS), ZEN v.2.3 SP1 (Carl Zeiss) and Leica Application Suite X v.3.6.0.24 (Leica). Cells were quantified by investigators who were blinded to the identity of the analyzed cell.

[1] = system: BUBR1, HMGA1, KDM1A, ZNF143 and FOXM1 mRNA; assay: RT-PCR of BUBR1 and its transcription factors in HGADFN003 cells; conditions: for BUBR1 relative (to β-actin) mRNA level (2-ΔΔCt) / FOXM1 relative (to β-actin) mRNA level (2-ΔΔCt) / HMGA1 relative (to β-actin) mRNA level (2-ΔΔCt) / KDM1A relative (to β-actin) mRNA level (2-ΔΔCt) / ZNF143 relative (to β-actin) mRNA level (2-ΔΔCt): Fig. 4a, HGADFN003, vs Mock = 1; for BUBR1 relative (to β-actin) mRNA level (2-ΔΔCt): P=0.0003; for FOXM1 relative (to β-actin) mRNA level (2-ΔΔCt): P=0.2399; for HMGA1 relative (to β-actin) mRNA level (2-ΔΔCt): P=0.9214; for KDM1A relative (to β-actin) mRNA level (2-ΔΔCt): P=0.683; for ZNF143 relative (to β-actin) mRNA level (2-ΔΔCt): P=0.9897
Method: RNA preparation was performed as described. Total RNA was extracted using Trizol reagent (TaKaRa) following the manufacturer’s instructions. cDNA was generated with M-MLV reverse transcriptase (Promega, catalog no. M170B). Reverse transcription with PCR (RT-PCR) was performed with SYBR Green Real-Time PCR Master Mix (TaKaRa). RT-PCR was carried out on a QuantStudio 3 Real-Time-PCR Instrument (ABI). Data were analyzed and further processed in QuantStuido Design and Analysis Software and GraphPad Prism v.7. Fold change in gene expression over control samples was calculated using the 2^–ΔΔCt method, where β-actin Ct values were used as an internal control. The primer sequences for PCR, synthesized by Comate Bioscience, were as follows:
β-actin_fwd (5′-[…]-3′) and β-actin_rev (5′-[…]-3′); AURKB_fwd (5′-[…]-3′) and AURKB_rev (5′-[…]-3′); BUB1_ fwd (5′-[…]-3′) and BUB1_rev (5′-[…]-3′); BUB1B_fwd (5′-[…]-3′) and BUB1B_ rev (5′-[…]-3′); CCNA2_fwd (5′-[…]-3′) and CCNA2_ rev (5′-[…]-3′); Mad2l1_fwd (5′-[…]-3′) and Mad2l1_ rev (5′-[…]-3′); TTK1_fwd (5′-[…]-3′) and TTK1_ rev (5′-[…]-3′); PLK1_fwd (5′-[…]-3′) and PLK1_ rev (5′-[…]-3′); PTBP1_fwd (5′-[…]-3′) and PTBP1_ rev (5′-[…]-3′); HMGA1_fwd (5′-[…]-3′) and HMGA1_ rev (5′-[…]-3′); KDM1A1_fwd (5′-[…]-3′) and KDM1A1_ rev (5′-[…]-3′); ZNF143_fwd (5′-[…]-3′) and ZNF143_ rev (5′-[…]-3′); FOXM1_fwd (5′-[…]-3′) and FOXM1_ rev (5′-[…]-3′).

HGPS cells = assay: Cellular uptake of FITC-modified UPCP
Method: Fibroblasts from patients with HGPS were obtained from The Progeria Research Foundation Cell and Tissue Bank (http://www.progeriaresearch.org). The following fibroblasts were used: HGADFN003, HGADFN167, HGMDFN090 and HGFDFN168. Human dermal fibroblasts (GM00038 and AG09602) were obtained from Coriell Cell Repository (https://catalog.coriell.org). These cells were characterized by DNA fingerprinting and isozyme detection and were tested by a MycoBlue Mycoplasma Detector (Vazyme Biotech) to exclude mycoplasma contamination before the experiments. […] HGADFN003, HGADFN167, HGMDFN090, HGFDFN168, GM00038 and AG09602 were cultured in DMEM medium with 15% (v/v) fetal bovine serum (VivaCell). […] For bleomycin-induced senescence, IMR90 cells were incubated with the culture medium containing 20 μg ml^–1 Bleomycin (Selleck, catalog no. S1214) for 2 h and analyzed 10 days later, or as otherwise indicated. For doxorubicin-induced senescence, IMR90 cells were treated twice with 100 nM Doxorubicin (Selleck, catalog no. S1208) with a 2 day interval and analyzed 10 days later, or as otherwise indicated. For ionizing radiation (IR)-induced senescence, IMR90 cells were exposed to 10 Gy Gamma rays, and analyzed 10 days later, or as otherwise indicated, the control IMR90 cells were mock irradiated. […]

With “H-YGRKKRRQRRRYNLRSRTVLCGTCGQPADKASASGSGAQSPQNCSIM-OH (cysteines drawn unpaired) [UPCP, unique progerin C-terminal peptide]” the “PTBP1 nuclear membrane location cells” value (PTBP1 in HGADFN003 cells; replicate 1) was 45%, the “PTBP1 nuclear membrane location cells” value (PTBP1 in HGADFN003 cells; replicate 2) was 39% and the “PTBP1 nuclear membrane location cells” value (PTBP1 in HGADFN003 cells; replicate 3) was 35%. The “BUBR1 relative (to β-actin) mRNA level (2-ΔΔCt)” value ([1]; replicate 1) was 5.569, the “BUBR1 relative (to β-actin) mRNA level (2-ΔΔCt)” value ([1]; replicate 2) was 6.327 and the “BUBR1 relative (to β-actin) mRNA level (2-ΔΔCt)” value ([1]; replicate 3) was 4.947. The “FOXM1 relative (to β-actin) mRNA level (2-ΔΔCt)” value ([1]; replicate 1) was 1.5201, the “FOXM1 relative (to β-actin) mRNA level (2-ΔΔCt)” value ([1]; replicate 2) was 2.139 and the “FOXM1 relative (to β-actin) mRNA level (2-ΔΔCt)” value ([1]; replicate 3) was 0.8641. The “HMGA1 relative (to β-actin) mRNA level (2-ΔΔCt)” value ([1]; replicate 1) was 0.9058, the “HMGA1 relative (to β-actin) mRNA level (2-ΔΔCt)” value ([1]; replicate 2) was 1.8337 and the “HMGA1 relative (to β-actin) mRNA level (2-ΔΔCt)” value ([1]; replicate 3) was 0.3934. For the same substance, the “KDM1A relative (to β-actin) mRNA level (2-ΔΔCt)” value ([1]; replicate 1) was 0.9262, the “KDM1A relative (to β-actin) mRNA level (2-ΔΔCt)” value ([1]; replicate 2) was 0.9644 and the “KDM1A relative (to β-actin) mRNA level (2-ΔΔCt)” value ([1]; replicate 3) was 1.24. The “ZNF143 relative (to β-actin) mRNA level (2-ΔΔCt)” value ([1]; replicate 1) was 0.3607, the “ZNF143 relative (to β-actin) mRNA level (2-ΔΔCt)” value ([1]; replicate 2) was 1.774 and the “ZNF143 relative (to β-actin) mRNA level (2-ΔΔCt)” value ([1]; replicate 3) was 0.8819. The “BUBR1 mRNA expression” value ([1]; RT-PCR, HGADFN003 cells) was “could upregulate expression of BUBR1”, the “expression of transcription factors regulating BUBR1” value ([1]; RT-PCR, HGADFN003 cells) was “had little effect on their expression” and the “time to cellular uptake” value (HGPS cells) was no more than 2 h.
